From patent US6911450B1, “Pyrimidine acyclonucleoside derivatives, preparation method and use thereof” (Universite de Geneve, priority 2001, dated 2005)
Where two headings read alike, the source gives them in different places.

Tests used:
[1] = Cytotoxicity assay revealed by MTT after seven days of culture; format: cell-based, human; settings: human, PBMC, 50% diminution of growth and viability
Protocol: (§1) Concurrently to the screening, and in the same conditions, cytotoxicity assays of the test compounds were carried out.
(§2) This assay has allowed to determine the concentration of the product causing a diminution of 50% of the growth and the viability of PBMC (CC50).
(§3) The PBMC were isolated as described in Ulmer and col., Immunobiology, 166(3), 238-250 (1984) from a healthy donor by a Ficoll gradient (Nicomed Pharma AS).
(§4) The PBMC were activated with phytohemagglutinine for three days and then cultivated in a 96-well plate, in a base medium (RPMI) supplemented with recombinant human Interleukin-2.
(§5) Throughout the culture, the cells were maintained at 37° C., in an atmosphere saturated in humidity, and under 5% CO2.

HIV-1 lai strain = experiment: Anti-HIV test on PBMC, viral replication measured by Reverse Transcriptase (RT) activity in culture supernatants; format: cell-based; settings: for IC50 / IC90: Human immunodeficiency virus 1, 168 h, against HIV-Lai on PBMC, 7 days, RT activity assay; for activity relative to that of its congeners or of its rivals: from Table 1
Protocol: The object of the screening is to evaluate the antiretroviral activity of the compounds of the present invention and of the Comparative Compounds on the HIV-1 lai strain cultivated on peripheral blood mononucleated cells (PBMC). For this purpose, the test compounds were incubated for seven days (duration of the anti-HIV test) with the PBMC in exponential phase of growth. The ability of the compounds to inhibit the viral replication was then measured in the culture supernatants either by an assay of the “Reverse Transcriptase” (RT) activity with the kit RetroSys TR (INNOVAGEN) or by an assay of the protein P24 with the kit Innotest HIV Antigen mAb Screening (IMMUNOGENETICS). The concentrations of the test compound causing 50 and 90% inhibition of the viral replication were determined. It concerns inhibition concentrations IC50 and IC90, respectively. The PBMC were isolated as described in Ulmer and col., Immunobiology, 166(3), 238-250 (1984) from a healthy donor by a Ficoll gradient (Nicomed Pharma AS). The PBMC were activated with phytohemagglutinine for three days and then cultivated in a 96-well plate, in a base medium (RPMI) supplemented with recombinant human Interleukin-2. Throughout the culture, the cells were maintained at 37° C., in an atmosphere saturated in humidity, and under 5% CO2. The PBMC were pre-treated for one hour in the presence of the test compounds at various concentrations, and then infected with 100 TCID50 of HIV-1-Lai [S. Wain-Hobson and col., Science 17, 252 (5008): 961-965 (1991)]. Three days after the infection with HIV-1, the half of the culture medium was changed and, at the day 7, the supernatants were taken and frozen at −20° C. Then, the viral replication was measured: a) by assaying the “Reverse Transcriptase” (RT) activity in the culture supernatants by means of the kit RetroSys (Innovagen). The RT contained in the supernatant synthesizes, in the presence of bromodeoxyuridine triphosphate (BrdUTP), a complementary strand DNA to a matrix immobilized on the bottom of the wells of a 96-well plate. The incorporation of BrdU is quantified by the fixation of an antibody anti-BrdU conjugated to the alkaline phosphatase. The activity of the attached alkaline phosphatase, measured by colorimetry, is proportional to the RT activity in the culture supernatant. The results described below are the results of at least two experiments which are distinct and carried out in triplicate.

HIV-1 = settings: cited from earlier work; for activity against HIV-1: prior art
[2] = Combination test with AZT, ddI and ddC; format: cell-based
[3] = system: Bone marrow cells of Balb/c mice; experiment: Toxicity test on bone marrow cells (proliferation by Trypan blue count, differentiation by flow cytometry); format: cell-based; settings: for cell proliferation / proportions of lymphocytes B, myelocytes, neutrophiles and macrophages induced by the cytokines: mouse bone marrow cells, 5 days; for cell proliferation: 1×10^−12 to 1×10^−5 M, versus absence of compound; for proportions of lymphocytes B, myelocytes, neutrophiles and macrophages induced by the cytokines: whatever the concentration, presence versus absence of compound
Protocol: Toxicity tests of Compounds No. 3 and 5 of the present invention were further carried out on bone marrow cells according to the following working method. Bone marrow cells of Balb/c mice were cultivated at the rate of 5×10^5 cells/ml in cultures of 1 ml in RPMI 1640 medium supplemented with 1 mM glutamine, 10% fetal calf serum, penicillin and streptomycin (GIBCO, USA). The cells were stimulated by addition of 1 ng/ml of Stem cell factor (c-kit ligand), IL3 and GM-CSF (Pharmingen, USA) in the presence of increasing concentrations of the Compounds 3 and 5 of the present invention ranging from 1×10^−12 to 1×10^−5 M. After 5 days of culture at 37° C., 5% CO2, the cells were recovered. The proliferation was evaluated by numeration of living cells in the presence of Trypan blue. The differentiation of the cells was evaluated by Flow Cytometry (Facs-Calibur, BECTON DICKINSON, USA) by double labeling of the cells with antibodies anti-CD38 conjugated with phycoerythrine (PE), anti-Gr1 conjugated with fluoresceine 5 (Fl), anti-Gr1-PE and anti-CD11b-Fl (Pharmingen, USA).

PBMC = experiment: Cytotoxicity assay revealed by MTT after seven days of culture; format: cell-based, human; settings: 7 days, 50% diminution of growth and viability
Protocol: as §1, §2, §3, §4, §5

IC50 (HIV-1 lai strain)	IC90 (HIV-1 lai strain)	melting point	Compound	CC50 at 7 days [1]	other results
0.92 nM	15 nM	147 to 148 °C	CCc1c(Cc2cc(C)cc(C)c2)n(COCCN(O)C(N)=O)c(=O)[nH]c1=O [Comparative 1, 1-(2-N^1-hydroxyureidoethyloxymethyl)-6-(3,5-dimethylbenzyl)-5-ethyluracil]	> 500000 nM	
2.3 nM	30 nM	148 to 150 °C	CCc1c(Cc2cc(C)cc(C)c2)n(COCCCCN(O)C(N)=O)c(=O)[nH]c1=O [Comparative 2, 1-(4-N^1-hydroxyureidobutyloxymethyl)-6-(3,5-dimethylbenzyl)-5-ethyluracil]	> 50000 nM	
2.3 nM	9 nM		CCc1c(Cc2cc(C)cc(C)c2)n(COCCCNC(=O)NO)c(=O)[nH]c1=O [Compound 1, 1-(3-N^3-hydroxyureidopropyloxymethyl)-6-(3,5-dimethylbenzyl)-5-ethyl-uracil]	260000 nM	
0.24 nM	1.7 nM	165 to 167 °C	CCc1c(Cc2cc(C)cc(C)c2)n(COCCCN(O)C(N)=O)c(=O)[nH]c1=O [Compound 2, 1-(3-N1-hydroxyureidopropyloxymethyl)-6-(3,5-dimethylbenzyl)-5-ethyl-uracil]	> 300000 nM	synergy with AZT, ddI and ddC [2]: exhibited a synergy
	0.0039 nM	88 to 90 °C	Cc1cc(C)cc(Cc2c(C(C)C)c(=O)[nH]c(=O)n2COCCCN(O)C(N)=O)c1 [Compound 3, 1-(3-N^1-hydroxyureidopropyloxymethyl)-6-(3,5-dimethylbenzyl)-5-isopropyluracil]	220000 nM	activity relative to that of its congeners or of its rivals (HIV-1 lai strain): 100,000 times; toxic effects on bone marrow cells of mice ([3]; even at concentrations 1×10^6 time higher than those inhibiting HIV replication in human lymphocytes in vitro): no significant toxic effects; cell proliferation [3]: identical to the one observed in the absence; proportions of lymphocytes B, myelocytes, neutrophiles and macrophages induced by the cytokines [3]: identical in the presence or in the absence
			Cc1cc(C)cc(Cc2c(C(C)C)c(=O)[nH]c(=O)n2COCCCN(OC(=O)C(C)(C)C)C(N)=O)c1 [Compound 5, 1-(3-N^1-pivaloyloxyureidopropyloxymethyl)-6-(3,5-dimethylbenzyl)-5-isopropyluracil]		CC50 (PBMC): 65000 nM; activity relative to that of its congeners or of its rivals (HIV-1 lai strain): 1,000,000 times; toxic effects on bone marrow cells of mice [3]: no significant toxic effects; cell proliferation [3]: identical to the one observed in the absence; proportions of lymphocytes B, myelocytes, neutrophiles and macrophages induced by the cytokines [3]: identical in the presence or in the absence
			Cc1cn(C(C)OCCN(O)C(N)=O)c(=O)[nH]c1=O (stereo not shown) [Formula B]		activity against HIV-1 (HIV-1): totally inactive

Compound	IC50 (HIV-1 lai strain)	IC90 (HIV-1 lai strain)	melting point	CC50 at 7 days [1]	other results
CCc1c(Cc2ccccc2)n(COCCN(O)C(N)=O)c(=O)[nH]c1=O [Comparative 3, 1-(2-N^1-hydroxyureidoethyloxymethyl)-6-benzyl-5-ethyluracile]	70 nM		276 to 277 °C	> 250000 nM	IC50 (HIV-1; against HIV-1, prior art): 70 nM; activity against HIV-1 (HIV-1): only very moderately active
CCOCn1c(Cc2ccccc2)c(C(C)C)c(=O)[nH]c1=O [Comparative 4, 1-ethyloxymethyl-6-benzyl-5-isopropyluracil, reference compound]	2 nM			> 30000 nM	
CC(=O)ON(CCCOCn1c(Cc2cc(C)cc(C)c2)c(C(C)C)c(=O)[nH]c1=O)C(N)=O [Compound 4, 1-(3-N^1-acetoxyureidopropyloxymethyl)-6-(3,5-dimethylbenzyl)-5-isopropyluracile]	0.03 nM	0.6 nM	77 to 79 °C	30000 nM	
